{
  "source": "patent US20080261999A1",
  "about": "“Azabicycloalkane Derivatives Useful as Nicotinic Acetylcholine Receptor Agonists” (priority 2005, published 2008)",
  "key": {"rat striatal slices": {"system": "rat striatal slices", "experiment": "[3H] Dopamine release assay from rat striatal slices", "format": "cell-based", "description": "[^3H] Dopamine Release Assay from Rat Striatal Slices\nRelease of [^3H]dopamine from rat striatal slices is performed as follows. Male Lister-Hooded rats (250-350 g) are sacrificed by exposure to CO2 followed by cervical dislocation. Striata from 2 rats is dissected and chopped 3 times at 150 μm using a Mcllwain tissue chopper, each time rotating the tissue through 60°. Slices are dispersed in Krebs bicarbonate buffer (118 mM NaCl, 2.4 mM KCl, 2.4 mM CaCl2.2H2O, 1.2 mM KH2PO4, 1.2 mM MgSO4.7H2O, 25 mM NaHCO3, 10 mM glucose, 1 mM ascorbic acid, gassed with 5% CO2/95% O2 for 1 h, pH 7.4) including […] pargyline, and incubated with [^3H]dopamine (50 nM) for 30 minutes at 37° C. […]\nOptiphase Supermix (Wallac) scintillation fluid (170 μl) is added to each well of the collection plates prior to plates being heat sealed and radioactivity quantified using a Wallac 1450 Microbeta 96-well plate counter (Wallac Oy, Turku, Finland, counting efficiency 25%). Radioactivity remaining in the slices is measured by digestion of the tissue in 0.2 ml Solvable (Packard Biosciences) for 1 h followed by addition of 0.5 ml isopropyl alcohol and 4.5 ml Hlionic Fluor scintillation fluid (Packard Biosciences). Radioactivity was then quantified using a Wallac 1410 scintillation counter (Wallac Oy, Turku, Finland, counting efficiency 35%). […]"}, "human α4β2 nAChRs": {"molecular_target": "T1, human α4β2 nAChRs (Homo sapiens, UniProt P17787+P43681)", "T1 construct": "expressed in transfected cells; host or cells: HEK-293", "T1 sequence (P43681 29-627)": "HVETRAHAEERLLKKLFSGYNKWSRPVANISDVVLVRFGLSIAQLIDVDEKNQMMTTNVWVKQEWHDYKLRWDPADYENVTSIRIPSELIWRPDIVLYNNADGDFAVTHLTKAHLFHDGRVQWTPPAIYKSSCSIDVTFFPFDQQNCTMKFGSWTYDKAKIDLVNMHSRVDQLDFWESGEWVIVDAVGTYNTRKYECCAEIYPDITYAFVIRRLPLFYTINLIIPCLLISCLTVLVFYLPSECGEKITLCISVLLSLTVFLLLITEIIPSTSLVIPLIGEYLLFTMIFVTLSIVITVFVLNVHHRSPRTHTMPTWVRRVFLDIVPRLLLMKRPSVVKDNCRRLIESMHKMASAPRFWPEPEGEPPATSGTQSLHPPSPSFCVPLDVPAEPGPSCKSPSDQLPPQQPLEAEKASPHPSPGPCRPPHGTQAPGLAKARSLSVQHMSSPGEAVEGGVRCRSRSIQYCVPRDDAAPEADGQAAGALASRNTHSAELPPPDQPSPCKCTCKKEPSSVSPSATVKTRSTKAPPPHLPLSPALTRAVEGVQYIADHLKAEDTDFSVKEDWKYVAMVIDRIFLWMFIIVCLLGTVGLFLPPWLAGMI", "T1 sequence (P17787 26-502)": "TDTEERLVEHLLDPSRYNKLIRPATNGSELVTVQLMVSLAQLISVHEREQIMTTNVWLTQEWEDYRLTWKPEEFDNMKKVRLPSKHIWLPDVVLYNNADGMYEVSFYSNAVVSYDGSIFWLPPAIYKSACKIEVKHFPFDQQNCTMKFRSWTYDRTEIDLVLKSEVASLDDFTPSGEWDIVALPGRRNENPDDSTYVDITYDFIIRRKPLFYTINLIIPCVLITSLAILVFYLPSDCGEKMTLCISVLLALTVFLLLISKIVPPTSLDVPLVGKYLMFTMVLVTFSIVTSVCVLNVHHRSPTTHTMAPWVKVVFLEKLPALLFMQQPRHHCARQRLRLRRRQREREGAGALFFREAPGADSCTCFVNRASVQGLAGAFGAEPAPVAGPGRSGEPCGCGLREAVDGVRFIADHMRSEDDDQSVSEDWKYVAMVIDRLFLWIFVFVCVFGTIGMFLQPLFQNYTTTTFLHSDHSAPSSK", "experiment": "Nicotinic receptor radioligand binding SPA, [3H]-epibatidine, α4β2", "description": "(§1) Cell pastes from large-scale production of HEK-293 cells expressing human α4β2, or α3β4 nAChRs are homogenised in 4 volumes of the appropriate buffer (50 mM Tris.HCl containing 150 mM NaCl and 5 mM KCl, pH 7.4). The homogenate is centrifuged twice (40,000 g, 10 minutes, 4° C.) and the pellets re-suspended in 4 volumes of Tris.HCl buffer after the first spin and 8 volumes after the second spin. The re-suspended homogenate is centrifuged (100 g, 10 minutes, 4° C.) and the supernatant kept and re-centrifuged (40,000 g, 20 minutes, 4° C.). The pellet is re-suspended in Tris.HCl buffer supplemented with 10% w/v sucrose. The membrane preparation is stored in 1 ml aliquots at −80° C. until required. The protein concentration of the membrane preparation is determined using a BCA protein assay reagent kit.\n(§2) 96-well SPA radioligand binding assays are performed in a final volume of 250 μl Tris-HCl buffer (50 mM Tris-HCl, 150 mM NaCl, 5 mM KCl, pH 7.4) with 1 nM ((α4β2) or 2 nM (α3β4) [^3H]-epibatidine (53 Ci/mmol; Amersham); 1 mg/well ((α4β2) or 1.5 mg/well (α3β4) WGA-coated PVT SPA beads (Amersham) and 30 μg/well membrane protein for all 3 assay types. Non-specific binding (<10% for all 3 assay types) is determined using 10 μM epibatidine.\n(§3) Reactions are allowed to equilibrate for 2-4 hours at room temperature prior to reading on a Trilux Scintillation counter (Perkin Elmer). […]"}, "human α3β4 nAChRs": {"molecular_target": "T2, human α3β4 nAChRs (Homo sapiens, UniProt P30926+P32297)", "T2 construct": "expressed in transfected cells; host or cells: HEK-293", "T2 sequence (P32297 32-505)": "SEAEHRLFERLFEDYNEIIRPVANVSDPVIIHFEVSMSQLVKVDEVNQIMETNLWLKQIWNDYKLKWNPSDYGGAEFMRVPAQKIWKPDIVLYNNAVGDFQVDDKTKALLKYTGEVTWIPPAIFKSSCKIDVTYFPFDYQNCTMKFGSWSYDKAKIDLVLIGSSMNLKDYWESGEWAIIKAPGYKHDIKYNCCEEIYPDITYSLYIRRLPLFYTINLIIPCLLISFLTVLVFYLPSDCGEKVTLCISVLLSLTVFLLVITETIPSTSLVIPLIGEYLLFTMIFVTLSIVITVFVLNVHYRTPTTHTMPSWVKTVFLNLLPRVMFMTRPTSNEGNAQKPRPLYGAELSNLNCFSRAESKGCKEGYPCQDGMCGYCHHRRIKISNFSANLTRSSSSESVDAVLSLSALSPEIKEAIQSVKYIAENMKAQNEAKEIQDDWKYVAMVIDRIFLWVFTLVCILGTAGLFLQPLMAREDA", "T2 sequence (P30926 22-498)": "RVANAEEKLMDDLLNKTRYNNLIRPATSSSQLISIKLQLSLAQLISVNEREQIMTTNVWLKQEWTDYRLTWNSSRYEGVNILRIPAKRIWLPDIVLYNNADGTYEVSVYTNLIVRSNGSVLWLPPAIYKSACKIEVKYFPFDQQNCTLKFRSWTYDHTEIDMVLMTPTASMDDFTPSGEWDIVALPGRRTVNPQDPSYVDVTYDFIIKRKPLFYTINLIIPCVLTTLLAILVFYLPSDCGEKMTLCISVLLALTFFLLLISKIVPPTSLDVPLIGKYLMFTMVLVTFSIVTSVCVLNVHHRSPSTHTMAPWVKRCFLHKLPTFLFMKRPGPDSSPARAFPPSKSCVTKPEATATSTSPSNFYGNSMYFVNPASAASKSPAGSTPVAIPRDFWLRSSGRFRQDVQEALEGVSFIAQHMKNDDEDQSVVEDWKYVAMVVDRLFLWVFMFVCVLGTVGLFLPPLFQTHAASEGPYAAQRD", "experiment": "Nicotinic receptor radioligand binding SPA, [3H]-epibatidine, α3β4", "conditions": "HEK-293 membranes, 2 nM [3H]-epibatidine", "description": "as §1, §2, §3"}},
  "data": [
    {"smiles": "Fc1cc(C2=CC3CNCC(C2)C3)cc(-c2ccoc2)c1", "note": "(centres unmarked) [Example 20]", "values": [
      {"measurement": "EC50", "setting": "rat striatal slices", "result": 135, "unit": "nM"},
      {"measurement": "Efficacy Dopamine release %", "setting": "rat striatal slices", "result": 41.7, "unit": "%"},
      {"measurement": "Ki", "setting": "human α4β2 nAChRs; HEK-293 membranes, 1 nM [3H]-epibatidine", "result": 5.37, "unit": "nM"},
      {"measurement": "Ki α3β4/Ki α4β2", "setting": "human α4β2 nAChRs; selectivity for α4β2 over α3β4", "result": 89.2},
      {"measurement": "Ki", "setting": "human α3β4 nAChRs", "result": 479, "unit": "nM"}
    ]}
  ]
}
